Experimental data as given in patent US7297353B2, “Use of anemonin for treating aseptic inflammations” (priority 2000, dated 2007).
“Also recorded” adds a separate entry of the source.

What was measured:
spleen cells = experiment: Cytotoxicity effect of anemonin (MTT assay); type: cell-based, ICR mice; conditions: for OD value: 48 h
Protocol: The cell viability was determined by using 3-(4,5-dimethylthiazol-2-yl)-2,5-Diphenyl-tetrazolium bromide (MTT) assay. In brief, fresh spleen cells were obtained from ICR mice (male, 7-9 weeks old), 5×10^5 of spleen cells were cultured in 96-well flat plates. The medium was contained various concentrations of anemonin. After incubation for up to 48 h, MTT solution (5 mg/m in saline) was added to the 96 plates and cells were allowed to incubate for 6 h at 37° C. After the medium had been removed 100 μl, the cell and dye crystals were solubilized by adding 100 μl 10% sodium dodecyl sulfate (SDS), and then absorption was measured at 570 nm with a model 550-microplate reader (Bio-Rad).

injured skin = experiment: Effect of anemonin on the injured skin in mice (visual irritation score); type: in vivo, ICR mice; set-up: Irritation Score: scale not given here
Protocol: ICR mice were utilized for the studies. The dorsal hair of mice was cut and injured 24 hour before experiment. 25% ethanol (0.5 ml) and the liniment solution of anemonin (0.05, 0.5, 5 mg/ml, 0.5 ml) were coated 4 h a day for 7 days on the area of hairless which was 2×2 cm^2 per mice. The skin irritation was evaluated by visual scoring (Table C-3 and C-4) everyday. The mice were continuously observed for 7 days after stopping applying. […] The injured skin of application 0.5 mg/ml anemonin also healed up within 7 days.

[1] = system: lymphocytes from the whole spleen of ICR mice; experiment: Effect on survival rate of lymphocytes (MTT); type: cell-based; conditions: for MTT Average of OD values: 48-hour culture
Protocol: 5.1.1. Mice were sacrificed by removing spondyle, spleen was cut off and then ground to obtain single cell suspension. After erythrocytes were got rid of the remained cells were diluted to […] with RPMI-1640 culture solution containing 10% fetal bovine serum. In addition, all these performances must be sterile.
5.1.2. 200 μl solution in total volume (including 100 μl the cell suspension, 50 μl sample and 50 μl culture solution containing 10% fetal bovine serum) was dispensed on 96-well plate. 100 μl the cell suspension and 100 μl culture solution (200 μl in total volume) were added as negative control.
5.1.3. The cell was cultured at 37° C. and under 5% CO2 in incubator for 48 hours, and added MTT to the plate at […] 6 to 7 hours before the end of culture.
5.1.4. 100 μl of supernatant was sucked out when the culture was ended, and then lytic solution was added at 100 μl/well. The plates were kept in incubator for 6 to 7 hours. The survival rate was calculated according to the OD value (at 570 nm) measured by microplate reader.
Effect of different concentrations of Anemonin on survival rate of lymphocytes were determined, said lymphocytes were from the whole spleen of ICR mice after 48-hour culture.

[2] = 0.05 mg/ml on injured skin, Day 1, Treatment
[3] = 0.05 mg/ml on injured skin, Day 2, Treatment
[4] = 0.05 mg/ml on injured skin, Day 3, Treatment
[5] = 0.05 mg/ml on injured skin, Day 4, Treatment
[6] = 0.05 mg/ml on injured skin, Day 5, Treatment
[7] = 0.05 mg/ml on injured skin, Day 6, Treatment
[8] = 0.05 mg/ml on injured skin, Day 7, Treatment
[9] = 0.05 mg/ml on injured skin, Day 8, Observation
[10] = 0.05 mg/ml on injured skin, Day 9, Observation
[11] = 0.05 mg/ml on injured skin, Day 10, Observation
[12] = 0.05 mg/ml on injured skin, Day 11, Observation
[13] = 0.05 mg/ml on injured skin, Day 12, Observation
[14] = 0.05 mg/ml on injured skin, Day 13, Observation
[15] = 0.05 mg/ml on injured skin, Day 14, Observation
[16] = 0.5 mg/ml on injured skin, Day 1, Treatment
[17] = 0.5 mg/ml on injured skin, Day 2, Treatment
[18] = 0.5 mg/ml on injured skin, Day 3, Treatment
[19] = 0.5 mg/ml on injured skin, Day 4, Treatment
[20] = 0.5 mg/ml on injured skin, Day 5, Treatment
[21] = 0.5 mg/ml on injured skin, Day 6, Treatment
[22] = 0.5 mg/ml on injured skin, Day 7, Treatment
[23] = 0.5 mg/ml on injured skin, Day 8, Observation
[24] = 0.5 mg/ml on injured skin, Day 9, Observation
[25] = 0.5 mg/ml on injured skin, Day 10, Observation
[26] = 0.5 mg/ml on injured skin, Day 11, Observation
[27] = 0.5 mg/ml on injured skin, Day 12, Observation
[28] = 0.5 mg/ml on injured skin, Day 13, Observation
[29] = 0.5 mg/ml on injured skin, Day 14, Observation
[30] = 5 mg/ml on injured skin, Day 2, Treatment
[31] = 5 mg/ml on injured skin, Day 3, Treatment
[32] = 5 mg/ml on injured skin, Day 4, Treatment
[33] = 5 mg/ml on injured skin, Day 5, Treatment
[34] = 5 mg/ml on injured skin, Day 6, Treatment
[35] = 5 mg/ml on injured skin, Day 7, Treatment
[36] = 5 mg/ml on injured skin, Day 8, Observation
[37] = 5 mg/ml on injured skin, Day 9, Observation
[38] = 5 mg/ml on injured skin, Day 10, Observation
[39] = 5 mg/ml on injured skin, Day 11, Observation
[40] = 5 mg/ml on injured skin, Day 12, Observation
[41] = 5 mg/ml on injured skin, Day 13, Observation
[42] = 5 mg/ml on injured skin, Day 14, Observation

## O=C1C=CC2(CCC23C=CC(=O)O3)O1 (stereo not drawn) [Anemonin, anemonin]
Spleen cells; 0.001 ug/ml
  cytotoxicity: No
Spleen cells; 0.001 ug/ml, 570 nM
  OD value: 0.196 ± 0.006
Spleen cells; 0.01 ug/ml
  cytotoxicity: No
  OD value: 0.193 ± 0.007
Spleen cells; 0.1 ug/ml
  cytotoxicity: No
  OD value: 0.200 ± 0.011
Spleen cells; 1 ug/ml
  cytotoxicity: Yes
  OD value: 0.160 ± 0.004
Spleen cells; 10 ug/ml
  cytotoxicity: Yes
  OD value: 0.135 ± 0.003
Spleen cells; 100 ug/ml
  cytotoxicity: Yes
  OD value: 0.118 ± 0.011
Spleen cells; 1-100 μg/ml
  cytotoxic effects: cytotoxic effects in a dose-dependent manner
Injured skin; [2]
  Irritation Grade: No (No irritation <0.5)
  Irritation Score: 0
Injured skin; [3]
  Irritation Grade: No (No irritation <0.5)
  Irritation Score: 0
Injured skin; [4]
  Irritation Grade: No (No irritation <0.5)
  Irritation Score: 0
Injured skin; [5]
  Irritation Grade: No (No irritation <0.5)
  Irritation Score: 0
Injured skin; [6]
  Irritation Grade: No (No irritation <0.5)
  Irritation Score: 0
Injured skin; [7]
  Irritation Grade: No (No irritation <0.5)
  Irritation Score: 0
Injured skin; [8]
  Irritation Grade: No (No irritation <0.5)
  Irritation Score: 0
Injured skin; [9]
  Irritation Grade: No (No irritation <0.5)
  Irritation Score: 0
Injured skin; [10]
  Irritation Grade: No (No irritation <0.5)
  Irritation Score: 0
Injured skin; [11]
  Irritation Grade: No (No irritation <0.5)
  Irritation Score: 0
Injured skin; [12]
  Irritation Grade: No (No irritation <0.5)
  Irritation Score: 0
Injured skin; [13]
  Irritation Grade: No (No irritation <0.5)
  Irritation Score: 0
Injured skin; [14]
  Irritation Grade: No (No irritation <0.5)
  Irritation Score: 0
Injured skin; [15]
  Irritation Grade: No (No irritation <0.5)
  Irritation Score: 0
Injured skin; [16]
  Irritation Grade: Mild (Mide irritation <2.09)
  Irritation Score: 1
Injured skin; [17]
  Irritation Grade: No (No irritation <0.5)
  Irritation Score: 0.25
Injured skin; [18]
  Irritation Grade: No (No irritation <0.5)
  Irritation Score: 0.25
Injured skin; [19]
  Irritation Grade: No (No irritation <0.5)
  Irritation Score: 0.25
Injured skin; [20]
  Irritation Grade: No (No irritation <0.5)
  Irritation Score: 0.125
Injured skin; [21]
  Irritation Grade: No (No irritation <0.5)
  Irritation Score: 0
Injured skin; [22]
  Irritation Grade: No (No irritation <0.5)
  Irritation Score: 0
Injured skin; [23]
  Irritation Grade: No (No irritation <0.5)
  Irritation Score: 0
Injured skin; [24]
  Irritation Grade: No (No irritation <0.5)
  Irritation Score: 0
Injured skin; [25]
  Irritation Grade: No (No irritation <0.5)
  Irritation Score: 0
Injured skin; [26]
  Irritation Grade: No (No irritation <0.5)
  Irritation Score: 0
Injured skin; [27]
  Irritation Grade: No (No irritation <0.5)
  Irritation Score: 0
Injured skin; [28]
  Irritation Grade: No (No irritation <0.5)
  Irritation Score: 0
Injured skin; [29]
  Irritation Grade: No (No irritation <0.5)
  Irritation Score: 0
Injured skin; 5 mg/ml on injured skin, Day 1, Treatment
  Irritation Grade: Moderate (Moderate irritation <6.0)
Injured skin; [30]
  Irritation Grade: Moderate (Moderate irritation <6.0)
  Irritation Score: 3.4
Injured skin; [31]
  Irritation Grade: Moderate (Moderate irritation <6.0)
  Irritation Score: 3.3
Injured skin; [32]
  Irritation Grade: Moderate (Moderate irritation <6.0)
  Irritation Score: 3.3
Injured skin; [33]
  Irritation Grade: Moderate (Moderate irritation <6.0)
  Irritation Score: 3.3
Injured skin; [34]
  Irritation Grade: Moderate (Moderate irritation <6.0)
  Irritation Score: 4
Injured skin; [35]
  Irritation Grade: Moderate (Moderate irritation <6.0)
  Irritation Score: 4
Injured skin; [36]
  Irritation Grade: Moderate (Moderate irritation <6.0)
  Irritation Score: 4
Injured skin; [37]
  Irritation Grade: Moderate (Moderate irritation <6.0)
  Irritation Score: 4
Injured skin; [38]
  Irritation Grade: Moderate (Moderate irritation <6.0)
  Irritation Score: 3.5
Injured skin; [39]
  Irritation Grade: Moderate (Moderate irritation <6.0)
  Irritation Score: 3
Injured skin; [40]
  Irritation Grade: Moderate (Moderate irritation <6.0)
  Irritation Score: 2.5
Injured skin; [41]
  Irritation Grade: Mild (Mide irritation <2.09)
  Irritation Score: 2
Injured skin; [42]
  Irritation Grade: Mild (Mide irritation <2.09)
  Irritation Score: 2
Injured skin; 5 mg/ml, 0.5 ml, 4 h a day for 7 days on injured skin, Day 1, Treatment
  Irritation Score: 3.1
Injured skin; application of 0.05 mg/ml
  irritation on injured skin: did not cause any irritation
Injured skin; application of 0.5 mg/ml, after 24 h application, then began to alleviate
  irritation on injured skin: slight erythema
Injured skin; application of 5 mg/ml
  irritation on injured skin: mild to moderate erythema
[1]; 0.001 μg/ml, Table B-2
  MTT Average of OD values: 0.087
  Decrease of survival rate of lymphocytes Yes/No: Yes
[1]; 0.01 μg/ml, Table B-2
  MTT Average of OD values: 0.068
  Decrease of survival rate of lymphocytes Yes/No: Yes
[1]; 0.1 μg/ml, Table B-2
  MTT Average of OD values: 0.061
  Decrease of survival rate of lymphocytes Yes/No: Yes
[1]; 1 μg/ml, Table B-1
  MTT Average of OD values: 0.052
  Decrease of survival rate of lymphocytes Yes/No: Yes
[1]; 1 μg/ml, Table B-2
  MTT Average of OD values: 0.002
  Decrease of survival rate of lymphocytes Yes/No: Yes
[1]; 10 μg/ml, Table B-1
  MTT Average of OD values: 0.002
  Decrease of survival rate of lymphocytes Yes/No: Yes
[1]; 10 μg/ml, Table B-2
  MTT Average of OD values: 0.008
  Decrease of survival rate of lymphocytes Yes/No: Yes
[1]; 100 μg/ml, Table B-1
  MTT Average of OD values: 0.163
[1]; 100 μg/ml, Table B-2
  MTT Average of OD values: 0.145
[1]; final concentration range from 0.001 μg/ml to 10 μg/ml
  inhibition in survival rate of the lymphocytes: obvious inhibition; also recorded: obvious effect
